Source: PMC3974779, “Pterostilbene-Isothiocyanate Conjugate Suppresses Growth of Prostate Cancer Cells Irrespective of Androgen Receptor Status” (PLoS ONE, 2014)

Tests used:
[1] = test system: AR protein in LNCaP cells; test: Immunoblot of AR protein; type: cell-based, human; settings: for inhibition of DHT induced AR protein levels: 10 nM DHT; for inhibition of AR protein levels: absence of DHT
Method: (§1) The whole-cell lysates were prepared as described previously in immunoprecipitation (IP) buffer containing 50 mM Tris-HCl (pH 8.0), 150 mM NaCl, 5 mM EDTA, and 1% Triton X-100. Protein aliquots of 500 μg were then incubated overnight at 4°C using 2 μg of antibody directed against AR. The Protein A-Cl Agarose beads were then added and further incubated for 6 h at 4°C. The immunoprecipitates were washed four times with the IP buffer and the immunocomplexes were recovered by boiling in SDS sample buffer. Finally the western blot was carried out using anti-AR, anti-SRC-1 and anti-GRIP-1 antibodies (Santa Cruz, CA, USA). For western blot analysis, the cell lysates were prepared after harvesting them in lysis buffer. About 40 μg of total protein was electrophoresed by 12% SDS-PAGE, and the western blotting was carried out using standard protocol. In brief, the analyzed proteins were transferred to nylon membranes. The blots were then blocked with TBST buffer (20 mM Tris-Cl, pH 7.5, 150 mM sodium chloride, 0.05% Tween-20) containing 5% skim milk powder. They were then washed with TBST buffer and incubated overnight at 4°C with the same buffer containing appropriate amounts of primary antibodies: caspase-3, Bax, Bcl-2, Akt, p-Akt, ERK, p-ERK, AR, SRC-1, GRIP-1 (1∶500) and β-actin (1∶1000). The blots were then washed and incubated with anti-rabbit secondary antibody (1∶20,000) conjugated with horseradish peroxidase (HRP). Color development was performed in the dark by using an ECL kit (Amersham, GE Healthcare, Buckinghamshire, UK). The developed blots were subjected to densitometric analysis by ImageJ 1.43 software (NIH, USA) using β-actin as internal control.

SRC-1 in LNCaP cells = test: Immunoblot of AR co-activators; type: cell-based, human
Method: as §1

GRIP-1 in LNCaP cells = test: Immunoblot of AR co-activators; type: cell-based, human
Method: as §1

LNCaP cells = test: MTT cell death with/without p53 inhibitor PFT-α; type: cell-based, human; settings: 20 and 40 μM conjugate 24 h, 20 μM PFT-α pre-treatment
Text: Since there was no significant difference in the number of apoptotic cells between conjugate treated LNCaP (wild type p53) and PC-3 (p53 null) cells (p<0.05), it was intriguing to check if p53 has any role in conjugate induced apoptosis of PCa cells. For this study we employed a pharmacological approach using specific wild type p53 inhibitor, pifithrin-α (PFT-α). PFT-α is a small molecule that binds to the DNA binding domain of p53, thereby inhibiting its transcriptional activity. For our experiment the LNCaP cells were pre-treated with 20 μM PFT-α for 2 h prior to the addition of 20 and 40 μM of conjugate for next 24 h. Subsequently the drug treated cells were used to check caspase-3 activity and cell death by immunoblot analysis (Fig. 4A) and MTT assay (Fig. 4B) respectively. […] Next we determined the effect of p53-inhibition on conjugate induced cell death by using MTT assay.

[2] = target: T1, androgen receptor in LNCaP cells (Homo sapiens, UniProt P10275, T878A); test: AR transactivation luciferase assay with/without exogenous SRC-1 and GRIP-1; type: cell-based; settings: 10 μM with DHT
T1 construct: LNCaP cells, that express endogenous AR; endogenous in cells; host or cells: LNCaP
T1 sequence (P10275 1-920 T878A): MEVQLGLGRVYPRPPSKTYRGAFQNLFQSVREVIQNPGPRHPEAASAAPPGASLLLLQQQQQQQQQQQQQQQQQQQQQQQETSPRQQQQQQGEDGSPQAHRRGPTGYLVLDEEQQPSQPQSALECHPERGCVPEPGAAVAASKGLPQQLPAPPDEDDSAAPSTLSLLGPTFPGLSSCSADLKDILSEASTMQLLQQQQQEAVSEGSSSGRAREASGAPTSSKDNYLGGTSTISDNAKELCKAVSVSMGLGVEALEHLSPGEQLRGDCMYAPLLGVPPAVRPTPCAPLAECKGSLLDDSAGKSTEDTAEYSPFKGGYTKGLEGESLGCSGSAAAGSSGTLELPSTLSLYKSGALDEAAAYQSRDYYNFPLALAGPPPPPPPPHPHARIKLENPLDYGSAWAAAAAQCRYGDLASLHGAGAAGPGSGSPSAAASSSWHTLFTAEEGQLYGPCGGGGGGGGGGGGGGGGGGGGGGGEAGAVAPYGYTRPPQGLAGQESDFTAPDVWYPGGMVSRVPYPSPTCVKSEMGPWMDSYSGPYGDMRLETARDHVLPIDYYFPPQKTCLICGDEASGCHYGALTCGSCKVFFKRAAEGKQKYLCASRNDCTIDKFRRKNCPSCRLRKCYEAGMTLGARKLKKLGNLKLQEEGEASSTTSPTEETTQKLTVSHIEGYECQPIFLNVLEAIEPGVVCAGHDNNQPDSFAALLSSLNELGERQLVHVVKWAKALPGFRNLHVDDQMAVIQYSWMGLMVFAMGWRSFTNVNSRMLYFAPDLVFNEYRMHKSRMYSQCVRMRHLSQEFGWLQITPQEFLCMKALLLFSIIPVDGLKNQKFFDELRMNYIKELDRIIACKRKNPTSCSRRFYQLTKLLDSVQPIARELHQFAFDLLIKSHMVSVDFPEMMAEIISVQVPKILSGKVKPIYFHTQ
Method: The LNCaP cells were grown and transiently transfected with pMMTV-neomycin-luciferase plasmid (300 ng/10^5 cells) in RPMI media supplemented with 10% FBS using polyfect transfection reagent (Qiagen, CA, USA) according to manufacturer’s instructions. […] In case of PC-3 cells, they were similarly transfected, but in addition to pMMTV-neomycin-luciferase construct, they were also transfected with pSG5-hAR-puro plasmid (full length hAR in pSG5 expression vector) in the ratio of 5∶1 as indicated above. For experiments involving co-regulators, 50 ng of co-activator plasmids (25 ng each of GRIP-1 and SRC-1) along with pMMTV-neo-luc (250 ng) were transfected to LNCaP cells. To evaluate the transfection efficiency, 500 ng/105 cells of the SV40 promoter-Renilla luciferase (pRL-SV40) vector (Promega Madison, USA) were co-transfected as internal control. […] The values of luciferase for each lysates were normalized to the Renilla luciferase activity.

Compound: COc1cc(/C=C/c2ccc(O)c(/C=N/NC(N)=S)c2)cc(OC)c1 [conjugate, Pterostilbene-isothiocyanate conjugate]
- inhibition of DHT induced AR protein levels ([1]; 10 μM): 1.1 folds
- inhibition of AR protein levels ([1]; 10 μM): 2 folds
- inhibition of DHT induced AR protein levels ([1]; 20 μM): 1.8 folds
- inhibition of AR protein levels ([1]; 20 μM): 5 folds
- decrease in expression of SRC-1 protein (SRC-1 in LNCaP cells; 10 μM): 1.4 folds
- decrease in expression of SRC-1 protein (SRC-1 in LNCaP cells; 20 μM): 2.6 folds
- reduction of GRIP-1 level (GRIP-1 in LNCaP cells; 10 μM): 1.7 folds
- reduction of GRIP-1 level (GRIP-1 in LNCaP cells; 20 μM): 2.6 folds
- cell death with vs without PFT-α (LNCaP cells): did not differ significantly
- AR transactivation (DHT alone = 100%) ([2]; with exogenous SRC-1 and GRIP-1): 102%
- AR transactivation (DHT alone = 100%) ([2]; without exogenous co-activators): 64%
